Reference: the NIST ThermoML archive (doi:10.1016/j.jct.2015.02.011)

Columns and labels:
[1] = 100.7 kPa, Liquid; for speed of sound: Frequency=3 MHz, Sing-around technique in a fixed-path interferometer; for mass density: Vibrating tube method
[2] = refractive index (Na D-line) (dimensionless); details: 100.7 kPa, Liquid, Standard Abbe refractometry
[3] = xn = mol fraction of the nth substance listed; details: 100.7 kPa, Liquid, x2 = 0; for speed of sound: Frequency=3 MHz, Sing-around technique in a fixed-path interferometer; for mass density: Vibrating tube method
[4] = refractive index (Na D-line) (dimensionless); xn = mol fraction of the nth substance listed; details: 100.7 kPa, Liquid, Standard Abbe refractometry, x2 = 0

CCCCn1cc[n+](C)c1.F[P-](F)(F)(F)(F)F [1-butyl-3-methylimidazolium hexafluorophosphate]
Details	mass density, [1] [kg/m3]	refractive index, [2]	speed of sound, [1] [m/s]
293.15 K	1370.41	1.41068	1454.6
298.15 K	1366.26	1.40943	1442.3
303.15 K	1362.13	1.40818	1430.2
308.15 K	1357.86	1.40693	1418.4
313.15 K	1353.88	1.40567	1406.7
318.15 K	1349.88	1.40443	1395.2
323.15 K	1345.57	1.40312	1384.1

CCCCCCn1cc[n+](C)c1.F[P-](F)(F)(F)(F)F [1-hexyl-3-methylimidazolium hexafluorophosphate]
Details	mass density, [1] [kg/m3]	refractive index, [2]	speed of sound, [1] [m/s]
293.15 K	1296.72	1.41958	1437.7
298.15 K	1292.62	1.41832	1424.3
303.15 K	1288.61	1.41692	1411.5
308.15 K	1284.72	1.41564	1399
313.15 K	1280.82	1.41422	1386.9
318.15 K	1276.37	1.41306	1375
323.15 K	1272.45	1.41175	1363.3

CCCCCCCC[n+]1ccn(C)c1.F[P-](F)(F)(F)(F)F [1-octyl-3-methylimidazolium hexafluorophosphate]
Details	mass density, [1] [kg/m3]	refractive index, [2]	speed of sound, [1] [m/s]
293.15 K	1238.77	1.42441	1421.2
298.15 K	1234.79	1.42312	1406.5
303.15 K	1230.84	1.42171	1392.4
308.15 K	1227.09	1.42029	1379
313.15 K	1223.3	1.41888	1365.8
318.15 K	1219.5	1.4175	1351.2
323.15 K	1215.42	1.41601	1338

C1CCOC1 [tetrahydrofuran]
Details	mass density, [1] [kg/m3]	refractive index, [2]	speed of sound, [1] [m/s]
293.15 K	888.766	1.40696	1305
298.15 K	883.297	1.4042	1280.8
303.15 K	877.809	1.40157	1256.8
308.15 K	872.279	1.39885	1232.9
313.15 K	866.713	1.39623	1209.2
318.15 K	861.106	1.39349	1185.7
323.15 K	855.456	1.39083	1162.3

C1CCOC1 [tetrahydrofuran] + CCCCCCCC[n+]1ccn(C)c1.F[P-](F)(F)(F)(F)F
Details	mass density, [3] [kg/m3]	refractive index, [4]	speed of sound, [3] [m/s]
293.15 K	888.766	1.40696	1305
298.15 K	883.297	1.4042	1280.8
303.15 K	877.809	1.40157	1256.8
308.15 K	872.279	1.39885	1232.9
313.15 K	866.713	1.39623	1209.2
318.15 K	861.106	1.39349	1185.7
323.15 K	855.456	1.39083	1162.3

C1CCOC1 [tetrahydrofuran] + CCCCCCn1cc[n+](C)c1.F[P-](F)(F)(F)(F)F
Details	mass density, [3] [kg/m3]	refractive index, [4]	speed of sound, [3] [m/s]
293.15 K	888.766	1.40696	1305
298.15 K	883.297	1.4042	1280.8
303.15 K	877.809	1.40157	1256.8
308.15 K	872.279	1.39885	1232.9
313.15 K	866.713	1.39623	1209.2
318.15 K	861.106	1.39349	1185.7
323.15 K	855.456	1.39083	1162.3

C1CCOC1 [tetrahydrofuran] + CCCCn1cc[n+](C)c1.F[P-](F)(F)(F)(F)F
Details	mass density, [3] [kg/m3]	refractive index, [4]	speed of sound, [3] [m/s]
293.15 K	888.766	1.40696	1305
298.15 K	883.297	1.4042	1280.8
303.15 K	877.809	1.40157	1256.8
308.15 K	872.279	1.39885	1232.9
313.15 K	866.713	1.39623	1209.2
318.15 K	861.106	1.39349	1185.7
323.15 K	855.456	1.39083	1162.3
